Assay results taken from ChEMBL document CHEMBL1201862, “PubChem BioAssay data set” (2004).
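Step 1: Grow cells in 96-well plates. Step 2: Expose to compound for 48 hours at 5 concentrations. Step 3: Interpolate endpoints linearly; if unreached, use highest concentration. Here, GI50 denotes the concentration required for 50% inhibition of growth.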 The source made the active and inactive calls. No stated cut-off is given here; in the data, active = GI50 up to about 1.1 µM and inactive = higher.

How the values were obtained:
Assay in all cases: DTP human tumour cell line panel, 48 h
CCRF-CEM = test system: CCRF-CEM
LOX IMVI = test system: LOX IMVI
MOLT-4 = test system: MOLT-4
OVCAR-8 = test system: OVCAR-8
DMS-114 = test system: DMS-114
M19-MEL = test system: M19-MEL
UO-31 = test system: UO-31
Malme-3M = test system: Malme-3M
SK-MEL-28 = test system: SK-MEL-28
HL-60 = test system: HL-60
K562 = test system: K562
UACC-257 = test system: UACC-257
HT-29 = test system: HT-29
TK-10 = test system: TK-10
SK-MEL-5 = test system: SK-MEL-5
SK-OV-3 = test system: SK-OV-3
UACC-62 = test system: UACC-62
HCT-15 = test system: HCT-15

Compound	GI50 (CCRF-CEM)	GI50 (LOX IMVI)	GI50 (MOLT-4)	GI50 (OVCAR-8)	GI50 (DMS-114)	GI50 (M19-MEL)	GI50 (UO-31)	GI50 (Malme-3M)	GI50 (SK-MEL-28)	GI50 (HL-60)	GI50 (K562)	GI50 (UACC-257)	GI50 (HT-29)	GI50 (TK-10)	GI50 (SK-MEL-5)	GI50 (SK-OV-3)	GI50 (UACC-62)	GI50 (HCT-15)
O=c1[nH]c(=O)n(C2CC(O)C(CO)O2)cc1/C=C/Br (stereo not given)	> 100 µM (inactive)	> 100 µM (inactive)	> 100 µM (inactive)	> 100 µM (inactive)	> 100 µM (inactive)	> 100 µM (inactive)	> 100 µM (inactive)	> 100 µM (inactive)	> 100 µM (inactive)	> 100 µM (inactive)	> 100 µM (inactive)	> 100 µM (inactive)	> 100 µM (inactive)	> 100 µM (inactive)	> 100 µM (inactive)	> 100 µM (inactive)	> 100 µM (inactive)	–
CNCCCCN(C)/[N+]([O-])=N\O	> 100 µM (inactive)	–	> 100 µM (inactive)	> 100 µM (inactive)	> 100 µM (inactive)	> 100 µM (inactive)	> 100 µM (inactive)	> 100 µM (inactive)	> 100 µM (inactive)	> 100 µM (inactive)	> 100 µM (inactive)	> 100 µM (inactive)	> 100 µM (inactive)	–	> 100 µM (inactive)	> 100 µM (inactive)	> 100 µM (inactive)	> 100 µM
O=C(c1c(O)cc(O)cc1O)C1Cc2ccccc21 (stereo not given)	> 100 µM (inactive)	> 100 µM (inactive)	> 100 µM (inactive)	39.2 µM (inactive)	> 100 µM (inactive)	> 100 µM (inactive)	58.3 µM (inactive)	> 100 µM (inactive)	–	74 µM (inactive)	68.1 µM (inactive)	> 100 µM (inactive)	> 100 µM (inactive)	> 100 µM (inactive)	> 100 µM (inactive)	> 100 µM (inactive)	> 100 µM (inactive)	> 100 µM
COc1nc(NC2OC(COC(C)=O)C(OC(C)=O)C(OC(C)=O)C2OC(C)=O)c(/N=C(\C)C(C)=O)c(=O)n1C (stereo not given)	> 100 µM (inactive)	> 100 µM (inactive)	> 100 µM (inactive)	> 100 µM (inactive)	> 100 µM (inactive)	> 100 µM (inactive)	> 100 µM (inactive)	> 100 µM (inactive)	–	> 100 µM (inactive)	> 100 µM (inactive)	> 100 µM (inactive)	> 100 µM (inactive)	> 100 µM (inactive)	> 100 µM (inactive)	> 100 µM (inactive)	> 100 µM (inactive)	> 100 µM
CC(=O)N1CCC2(c3ccccc3N(C(C)=O)C2c2ccc(O)cc2)C1C(=O)O (stereo not given)	> 100 µM (inactive)	> 100 µM (inactive)	> 100 µM (inactive)	> 100 µM (inactive)	> 100 µM (inactive)	> 100 µM (inactive)	> 100 µM (inactive)	> 100 µM (inactive)	> 100 µM (inactive)	> 100 µM (inactive)	> 100 µM (inactive)	> 100 µM (inactive)	> 100 µM (inactive)	> 100 µM (inactive)	> 100 µM (inactive)	> 100 µM (inactive)	> 100 µM (inactive)	–
Fc1ccccc1C1SCc2nc3ccccc3n21 (stereo not given)	43.1 µM (inactive)	–	30.4 µM (inactive)	49.4 µM (inactive)	24.4 µM (inactive)	51.9 µM (inactive)	24.8 µM (inactive)	55.3 µM (inactive)	> 100 µM (inactive)	11.9 µM (inactive)	16.3 µM (inactive)	33.7 µM (inactive)	> 100 µM (inactive)	> 100 µM (inactive)	18.8 µM (inactive)	34.8 µM (inactive)	35 µM (inactive)	–
